For series [1], the system named is Mus musculus. As to the kind of experiment: In vivo antimalarial activity to reduce parasitaemia in mice (Mus musculus) infected with Plasmodium berghei by 50% of the control. Type of series: functional.
For series [2], the system named is Plasmodium falciparum. Briefly: In vitro antimalarial activity for Plasmodium falciparum. Type of series: functional, organism-based.
A short description of series [3]: Half life of compound was determined. It counts as ADME.
The test system of series [4] is Plasmodium falciparum. Briefly: Inhibitory concentration against Plasmodium falciparum.
Series [5] deals with Plasmodium falciparum. Briefly: In vitro antimalarial activity for Plasmodium falciparum; range 3 nM to 10 nM. It counts as functional, organism-based.
Series [6] relates to Mus musculus. Briefly: In vivo antimalarial activity to reduce parasitaemia in mice (Mus musculus) infected with Plasmodium berghei by 50% of the control; range 1 mg/kg to 3 mg/kg. It counts as functional.
The subject of series [7] is Plasmodium falciparum. Briefly: Inhibitory concentration against Plasmodium falciparum. This is another data set of the same source.

Here are results for 9 molecules from ChEMBL document CHEMBL1148317, “A medicinal chemistry perspective on artemisinin and related endoperoxides” (J Med Chem, 2004).

The term ED50 denotes the midpoint of the dose-response relation. Low readings indicate an effect at a small dose, high ones a need for a large dose. As a reminder, the IC50 is the point on the concentration scale where inhibition reaches its midpoint. Lower therefore signals greater potency in that assay. A word on the half-life: it is how long it takes for the measured level to halve. Low values mean rapid decline, high ones slow decline.

In the series with Mus musculus [1], `Fc1ccc(C2=C[C@H]3OC4(CCCC4)OO[C@@]3(c3ccc(F)cc3)C2)cc1` registered an ED50 of 2.7 mg/kg. The molecule further gave an IC50 in the series on Plasmodium falciparum [2] of 4 nM.

For `CO[C@H]1O[C@@H](c2ccc(C(=O)O)cc2)C2CC[C@H]3CCCCC31OO2` (stereo partly specified), the 50% effect level in the series with Mus musculus [1] (ED50) was put at a dose of 10 mg/kg. Moreover, the IC50 in the series on Plasmodium falciparum [2] was found to be 30 nM.

Molecule `CO[C@H]1O[C@@]2(c3ccc(F)cc3)CCC[C@H]3CCCC[C@]31OO2` displayed an ED50 in the series on Mus musculus [1] of 10 mg/kg. Moreover, the IC50 in the series on Plasmodium falciparum [2] came to 30 nM.

The molecule `C[C@H]1[C@H](OCc2ccc(C(=O)[O-])cc2)O[C@@H]2O[C@]3(C)CCC[C@H]4[C@H](C)CC[C@@H]1[C@@]24OO3.[Na+]` had a half-life in series [3] of 3 h.

For `C1CCCCCC2(CCCCC1)OOCCCOO2`, the ED50 in the series with Mus musculus [1] was found to be 20 mg/kg. Also, the IC50 with Plasmodium falciparum [2] amounted to 25 nM; in the series with Plasmodium falciparum [4] it was 3 nM.

For the molecule `OC1CCC2(CC1)OOC1(O2)C2CC3CC(C2)CC1C3` (stereo unspecified), half-maximal inhibition in the series on Plasmodium falciparum [5] (IC50) required 10 nM. In the series on Mus musculus [6], the ED50 was determined as 3 mg/kg.

In turn, `CC1(OCc2ccccc2)CCC2C[C@@H]1OO[C@]2(C)CS(=O)(=O)c1ccccc1` (stereo partly specified) showed an ED50 in the series with Mus musculus [1] of 0.43 mg/kg. Also, in the series with Plasmodium falciparum [2], the IC50 stood at 9.4 nM.

In the series on Plasmodium falciparum [2], `Clc1ccc2c(NCCNC3CCC4(CC3)OOC3(O4)C4CC5CC(C4)CC3C5)ccnc2c1` (stereo unspecified) displayed an IC50 of 2.5 nM.

For `C[C@@H]1CC[C@H]2[C@@H](C)C(=O)O[C@@H]3O[C@@]4(C)CC[C@@H]1[C@]32OO4` [ARTEMISININ], it took 10 nM to reach half-maximal inhibition with Plasmodium falciparum [7] (IC50).
